Reference: paper PMC12604490, “Dual immunomodulatory and antileishmanial potential of TLR7/8 agonists against Leishmania donovani” (Infection and Immunity, 2025)
In brackets after ≈: the same amount, converted by molar mass.

What was measured:
[1] = tested on: L. donovani promastigotes; experiment: In vitro antipromastigote activity (trypan blue count, 48 h); assay type: cell-based, Leishmania donovani MHOM/IN/80/DD8; settings: Leishmania donovani, mean ± SD
Description: M199 was added with 0.2% sodium bicarbonate and 10% heat-inactivated fetal bovine serum (FBS; Biowest, France) + antibiotics (gentamycin and streptomycin) by serial subcultures after every 48-72 hours by transferring 0.5-1.0 mL of culture supernatant in fresh medium and kept in a biological oxygen demand (BOD) incubator ([20]). […] The percentage growth inhibition was calculated using the following formulas: Percentage viability=No. of live cells in treated well/No. of live cells in blank well×100 Percentage growth inhibition=100 - percentage viability. The IC50 values were calculated using SPSS software, version 25 ([22]).

[2] = tested on: intracellular L. donovani amastigotes; experiment: Antiamastigote activity in infected RAW 264.7 macrophages (Giemsa count, 48 h); assay type: cell-based; settings: Leishmania donovani, RAW264.7, intracellular amastigotes in RAW 264.7 macrophages, mean ± SD
Description: The macrophage cell growth was evaluated daily, and the cells were subcultured into a new flask containing fresh cell culture medium once they reached about 80%–90% confluency. […] Macrophages (2 × 10^4/mL) were plated on round coverslips placed in 24-well plates for 24 hours in a CO2 incubator (5% CO2) at 37°C. The coverslips were washed thrice with serum-free medium to remove the non-adherent cells. […] Infected macrophages were incubated with different concentrations of TLR7/8 agonists for 48 hours. After 48 hours, the coverslips were washed with phosphate-buffered saline (PBS), dried, fixed with chilled methanol, Giemsa-stained, and examined under a light microscope. A minimum of 200 macrophages were counted per coverslip to determine the number of amastigotes.

[3] = Cytotoxicity on RAW 264.7 macrophages (MTT, 48 h); assay type: cell-based; settings: mouse, RAW 264.7 macrophages
Description: (§1) To evaluate the cytotoxicity and antiamastigote assay, RAW 264.7 macrophages were cultured in Dulbecco’s modified Eagle medium (HiMedia, India), 10% heat-inactivated fetal bovine serum (FBS, Biowest) and cultured at 37°C (5% CO2). The macrophage cell growth was evaluated daily, and the cells were subcultured into a new flask containing fresh cell culture medium once they reached about 80%–90% confluency.
(§2) The cytotoxicity studies were performed using an immune cell line (RAW 264.7 macrophage) and non-immune epithelial cell line (HeLa) by 3-(4,5-dimethylthiazol-2-yl)-2,5-diphenyltetrazolium bromide (MTT) assay. A total of 7,000–10,000 cells/well were supplemented with different concentrations (2–64 μg/mL) of TLR7/8 agonists and incubated for 48 hours. MTT (1 mg/mL) (Hi-Media) was added to each well and kept for 4 hours. The formazan crystals formed were dissolved in 100 µL of dimethyl ulfoxide (DMSO), and absorbance at 550 nm was recorded using a microreader. AmB, MF, and Resiquimod were used as reference drugs. The percentage of cytotoxicity was calculated as [(absorbance of treated well − absorbance of blank) / (absorbance of untreated well − absorbance of blank)] × 100. The CC50 value was calculated with SPSS software. The SI of TLR7/8 agonists was obtained by calculating the ratio of CC50 (RAW 264.7 macrophage and HeLa cells) and IC50 (antipromastigote and antiamastigotes) ([21], [23]).

[4] = Cytotoxicity on HeLa cells (MTT, 48 h); assay type: cell-based, human; settings: human, HeLa cells
Description: HeLa cells (human cervical epithelial cell line) were grown in RPMI-1640 (HiMedia) with 10% FBS and cultured at 37°C (5% CO2). The cells were evaluated daily using an inverted microscope for any contamination and subcultured after reaching confluency ([21]).
as §2

TLR7 = tested on: TLR7; parameters: method as in PMID 38741265, PMID 39411538; settings: Table 1, previously reported, cited from earlier work; for EC50: read-out: TLL7 EC50
TLR8 = tested on: TLR8; parameters: method as in PMID 38741265, PMID 39411538; settings: Table 1; previously reported; cited from earlier work
[5] = tested on: L. donovani promastigotes; experiment: ROS in Leishmania promastigotes (H2DCFDA, flow cytometry); assay type: cell-based, Leishmania donovani; settings: promastigotes incubated with the IC50 value for 48 hours; untreated 295 ± 1.52
Description: Induction of ROS by promastigotes after exposure to TLR7/8 agonists was done using a cell-permeable fluorescent dye H2DCFDA (Thermo Fisher). […] After this given time period, parasites were harvested and washed thrice with PBS and resuspended in 10 µM H2DCFDA for 20 minutes in the dark at 37°C. The fluorescence was measured by using FACS Calibur flow cytometry ([24]).

RAW 264.7 macrophages [6] = experiment: NO production in RAW 264.7 macrophages (Griess reagent); assay type: cell-based
Description: After 24 hours, non-adherent cells were removed, and adherent cells were incubated with TLR7/8 agonist for 48 hours in the presence or absence of LPS (1 µg/mL) (Biosciences) to evaluate both unstimulated and LPS-stimulated macrophage responses. After 48 hours, the culture supernatant (100 µL) was collected and mixed with an equal volume of Griess reagent (1% sulfanilamide and 0.1% naphthlethylenediamine dihydrochloride in 2.5% phosphoric acid) (Sigma), and absorbance was measured in a microreader at 540 nm. Nitrite concentration was evaluated from a standard curve generated with sodium nitrite ([25]).

[7] = tested on: L. donovani promastigotes; experiment: Cell cycle progression in promastigotes (propidium iodide, flow cytometry); assay type: cell-based, Leishmania donovani; settings: promastigotes incubated with the IC50 for 48 hours; untreated 12.0% ± 1.05%
Description: For analysis of the promastigote cell cycle, 2 × 10^6 promastigotes/mL were briefly incubated with the IC50 of TLR7/8 agonists in a 24-well culture plate. After 48 hours, promastigotes were washed with PBS and fixed with 70% (vol/vol) chilled ethanol. After 1 hour of incubation, parasites were washed with PBS, and the pellet was incubated with 500 µL of DNase-free RNase (200 µg/mL) (Thermo Fisher) for 1 hour. Afterward, parasites were stained with PI dye (50 µg/mL), and the percentage of parasites in the sub-G0/G1 phase was analyzed using FACS Calibur flow cytometry ([20]).

RAW 264.7 macrophages [8] = experiment: Cytotoxicity on RAW 264.7 macrophages (MTT, 48 h); assay type: cell-based; settings: MTT, 48 hours, mean ± SD
Description: as §1, §2

Leishmania major = tested on: Leishmania major; parameters: method as in PMID 33531168; settings: 80 µM concentration; cited from earlier work
Leishmania infantum = settings: read-out: IC50 against Leishmania infantum; cited from earlier work
[9] = tested on: Leishmania in peritoneal macrophages; parameters: method as in PMID 30991111; settings: cited from earlier work
L. infantum = tested on: L. infantum; parameters: method as in PMID 33851916; settings: read-out: IC50 (antiamastigote) against L. infantum; cited from earlier work
[10] = MTT, 48 hours, mean ± SD, read-out: RAW macrophage CC50
[11] = MTT, 48 hours, mean ± SD, read-out: HeLa cell CC50
[12] = Fig 4 heat map, mean CC50, unit inferred, read-out: CC50, heat map, Hela Cells

Structure (SMILES) | IC50 [1] [µg/mL] | IC50 [2] [µg/mL] | CC50 at 48 h [3, 10] [µg/mL] | CC50 at 48 h [4, 11] [µg/mL] | CC50 at 48 h [4, 12] [µg/mL] | EC50 (TLR7) [nM] | EC50 (TLR8) [nM] | further results
CCCCc1nc2c(N)nc3ccccc3c2n1Cc1cccc(CNC(=O)OC(C)(C)C)c1 [compound 8] | 2.21 ± 0.6 (≈ 4.81 µM) | 3.1 ± 0.9 (≈ 6.75 µM) | 9.5 ± 1 (≈ 20.7 µM) | 8.86 ± 0.5 (≈ 19.3 µM) | 8.8 (≈ 19.1 µM) |  |  | TLL7 EC50 (TLR7): Active; TLR8 EC50 (TLR8): Active
CCCCn1cc2c(n1)c(N)nc1ccccc12 [compound 11] | 4.63 ± 0.45 (≈ 19.3 µM) | 6.6 ± 0.4 (≈ 27.5 µM) | 6.69 ± 0.22 (≈ 27.8 µM) | 4.67 ± 0.2 (≈ 19.4 µM) | 4.88 (≈ 20.3 µM) | 190 | 56 | RAW macrophage CC50 (RAW 264.7 macrophages [8]): 6.67 ± 0.2 µg/mL
COc1cc(/C=C/C(=O)CC(=O)/C=C/c2ccc(O)c(OC)c2)ccc1O [curcumin] |  |  |  |  |  |  |  | cell death (Leishmania major): 82.5%
CC(C)Cn1cnc2c(N)nc3ccccc3c21 [imiquimod] |  |  |  |  |  |  |  | IC50 (Leishmania infantum): 235 ± 10 nM
Oc1ccc(/C=C/c2cc(O)cc(O)c2)cc1 [resveratrol] |  |  |  |  |  |  |  | IC50 against Leishmania in peritoneal macrophages [9]: 0.09 µg/mL (≈ 0.394 µM)
CC(=O)OC1C(O)CC(OC2C(O)CC(OC3C(O)CC(OC4CCC5(C)C(CCC6C5CCC5(C)C(C7=CC(=O)OC7)CCC65O)C4)OC3C)OC2C)OC1C (stereo not drawn) [β-acetyl-digitoxin] |  |  |  |  |  |  |  | IC50 (L. infantum): 20900 ± 2600 nM

The next lines start with results.

IC50 [1] [µg/mL] | IC50 [2] [µg/mL] | Structure (SMILES) | CC50 at 48 h [3, 10] [µg/mL] | CC50 at 48 h [4, 11] [µg/mL] | CC50 at 48 h [4, 12] [µg/mL] | EC50 (TLR7) [nM] | EC50 (TLR8) [nM] | further results
3.82 ± 0.39 (≈ 8.31 µM) | 5.16 ± 0.79 (≈ 11.2 µM) | CCCCc1nc2c(N)nc3ccccc3c2n1Cc1ccc(CNC(=O)OC(C)(C)C)cc1 [compound 7] | 6.28 ± 0.2 (≈ 13.7 µM) | 4.28 ± 0.2 (≈ 9.31 µM) |  |  |  | TLL7 EC50 (TLR7): Active; TLR8 EC50 (TLR8): Active
4.53 ± 0.58 (≈ 12.6 µM) | 6.46 ± 0.47 (≈ 18 µM) | CCCCc1nc2c(N)nc3ccccc3c2n1Cc1cccc(CN)c1 [compound 9] | 6.67 ± 0.3 (≈ 18.6 µM) | 4.67 ± 0.3 (≈ 13 µM) |  | […] | […] | 
2.33 ± 0.4 (≈ 6.48 µM) | 3 ± 0.36 (≈ 8.35 µM) | CCCCc1nc2c(N)nc3ccccc3c2n1Cc1ccc(CN)cc1 [compound 10] | 30.4 ± 1.6 (≈ 84.5 µM) | 29.4 ± 1.6 (≈ 81.7 µM) | 21.4 (≈ 59.4 µM) | […] | […] | CC50 at 48 h ([3]; Fig 4 heat map, mean CC50, unit inferred, read-out: CC50, heat map, Raw Macrophages): 25.4 µg/mL (≈ 70.6 µM); ROS, mean fluorescence intensity (MFI) [5]: 935 ± 1; NO production (RAW 264.7 macrophages [6]; RAW 264.7 macrophages, 48 hour treatment at the IC50 value, nitrite by Griess): 42 ± 1 µM; NO production in unstimulated macrophages (RAW 264.7 macrophages [6]; RAW macrophages without LPS stimulation, in words): moderate NO production; percentage of parasites in sub-G0/G1 phase [7]: 75.7% ± 1.25%
